From BindingDB's records for doi:10.1016/j.bioorg.2012.08.003 (North-West University, 2012)

How the values were obtained:
[1] = biological target: T1, Amine oxidase [flavin-containing] A (Homo sapiens, UniProt P21397); assay: Inhibition Assay; conditions: pH 7.4; 37 °C
T1 sequence (P21397 whole entry): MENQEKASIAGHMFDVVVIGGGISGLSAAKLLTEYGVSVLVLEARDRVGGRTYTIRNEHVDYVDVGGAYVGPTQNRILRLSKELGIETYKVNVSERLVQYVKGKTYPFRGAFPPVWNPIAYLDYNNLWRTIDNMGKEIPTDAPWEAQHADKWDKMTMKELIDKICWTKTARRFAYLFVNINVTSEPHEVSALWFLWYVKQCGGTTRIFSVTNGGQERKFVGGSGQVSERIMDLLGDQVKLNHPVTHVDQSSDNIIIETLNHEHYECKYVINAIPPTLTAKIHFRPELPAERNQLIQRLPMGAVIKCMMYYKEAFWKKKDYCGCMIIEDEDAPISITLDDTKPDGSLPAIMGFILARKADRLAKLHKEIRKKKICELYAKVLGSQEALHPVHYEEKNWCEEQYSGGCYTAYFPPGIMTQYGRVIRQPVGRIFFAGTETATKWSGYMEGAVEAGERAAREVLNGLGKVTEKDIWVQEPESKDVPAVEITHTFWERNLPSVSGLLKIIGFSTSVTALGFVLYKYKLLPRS
Source text: (§1) Inhibition studies using recombinant human MAO-A and MAO-B that were obtained from commercial sources (Sigma-Aldrich).

[2] = biological target: T2, Amine oxidase [flavin-containing] B (Homo sapiens, UniProt P27338); assay: Inhibition Assay; conditions: pH 7.4; 37 °C
T2 sequence (P27338 whole entry): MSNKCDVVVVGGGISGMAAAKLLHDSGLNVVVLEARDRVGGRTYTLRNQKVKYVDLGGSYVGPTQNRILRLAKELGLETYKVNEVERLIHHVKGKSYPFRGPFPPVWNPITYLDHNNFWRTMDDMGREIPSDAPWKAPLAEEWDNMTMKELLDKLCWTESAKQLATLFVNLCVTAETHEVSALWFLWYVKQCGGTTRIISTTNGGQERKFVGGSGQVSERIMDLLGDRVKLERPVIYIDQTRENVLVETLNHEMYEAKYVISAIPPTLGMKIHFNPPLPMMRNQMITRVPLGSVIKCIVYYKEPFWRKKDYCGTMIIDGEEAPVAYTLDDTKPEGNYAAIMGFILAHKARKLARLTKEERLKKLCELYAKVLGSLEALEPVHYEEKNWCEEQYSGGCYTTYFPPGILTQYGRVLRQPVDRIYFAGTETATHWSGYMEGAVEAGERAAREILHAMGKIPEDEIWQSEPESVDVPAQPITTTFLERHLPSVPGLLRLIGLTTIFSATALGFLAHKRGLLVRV
Source text: as §1

Row | IC50 [1] | IC50 [2] | Compound
1 | 5.33 µM | 0.085 µM | O=c1ccoc2cc(OCc3ccccc3)ccc12 [C7-substituted chromone derivative, 3a]
2 | 2.19 µM | 0.115 µM | O=c1ccoc2cc(OCCc3ccccc3)ccc12 [C7-substituted chromone derivative, 3b]
3 | 3.08 µM | 0.121 µM | O=c1ccoc2cc(OCCCc3ccccc3)ccc12 [C7-substituted chromone derivative, 3c]
4 | 1.52 µM | – | O=c1ccoc2cc(OCc3cccc(Cl)c3)ccc12 [C7-substituted chromone derivative, 3d]
5 | 0.495 µM | 0.029 µM | O=c1ccoc2cc(OCc3ccc(Cl)cc3)ccc12 [C7-substituted chromone derivative, 3e]
6 | 1.73 µM | 0.014 µM | O=c1ccoc2cc(OCc3cccc(Br)c3)ccc12 [C7-substituted chromone derivative, 3f]
7 | 0.592 µM | 0.018 µM | O=c1ccoc2cc(OCc3ccc(Br)cc3)ccc12 [C7-substituted chromone derivative, 3g]
8 | 2.1 µM | 0.044 µM | O=c1ccoc2cc(OCc3cccc(F)c3)ccc12 [C7-substituted chromone derivative, 3h]
9 | 1.17 µM | – | O=c1ccoc2cc(OCc3ccc(F)cc3)ccc12 [C7-substituted chromone derivative, 3i]
10 | 8.03 µM | 0.062 µM | Cc1cccc(COc2ccc3c(=O)ccoc3c2)c1 [C7-substituted chromone derivative, 3j]
11 | 7.12 µM | 0.075 µM | Cc1ccc(COc2ccc3c(=O)ccoc3c2)cc1 [C7-substituted chromone derivative, 3k]
12 | 0.784 µM | 0.37 µM | N#Cc1cccc(COc2ccc3c(=O)ccoc3c2)c1 [C7-substituted chromone derivative, 3l]
13 | 1.57 µM | 0.117 µM | N#Cc1ccc(COc2ccc3c(=O)ccoc3c2)cc1 [C7-substituted chromone derivative, 3m]
14 | 1.97 µM | – | O=c1ccoc2cc(OCc3ccc(C(F)(F)F)cc3)ccc12 [C7-substituted chromone derivative, 3n]
15 | 0.718 µM | 0.317 µM | O=c1ccoc2cc(OCCc3ccc(Br)cc3)ccc12 [C7-substituted chromone derivative, 3o]
